The values below come from the supplement of paper PMC11061612.

What all share (assay): Bliss excess, mean over the matrix (fraction); higher = more synergy
Experiment [1] deals with L-1236 (Hodgkin's Lymphoma). The method in brief: (§1)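 Cell lines grown in DMEM/F12 or RPMI with 10% FBS were plated in 1536-well plates and held 24 hours at 37°C, 5% CO2 before 72 hours of exposure to two-drug dose matrices, with DMSO typically at 0.2%. CellTiter-Glo 2.0 luminescence gave viability, which was converted to inhibition. Vehicle wells were set to 0 and blank wells to 1. Combination Emax is the second-highest inhibition in the matrix, and Bliss excess is the observed combination effect minus the expected EA + EB − EA·EB, where EA and EB are the single-agent effects.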

For experiment [2], the system named is VAL (B-Cell Non-Hodgkin's Lymphoma). The method in brief:
as §1

Experiment [3] deals with TE-8 (Esophageal Squamous Cell Carcinoma). In outline: as §1
Experiment [4] deals with SK-PN-DW (Other Solid Carcinomas). In outline: as §1
Experiment [5] concerns SHP-77 (Small Cell Lung Carcinoma). In outline:
as §1

Experiment [6] relates to NCI-H446 (Small Cell Lung Carcinoma). The method in brief:
as §1

For a further experiment, the system named is LN-229 (Glioblastoma). The method in brief:
as §1

For experiment [7], the system named is MFE-280 (Endometrial Carcinoma). The method in brief:
as §1

For experiment [8], the system named is PSN1 (Pancreatic Carcinoma). In outline: as §1
Experiment [9] deals with RERF-GC-1B (Gastric Carcinoma). In outline: as §1
Experiment [10] concerns OPM-2 (Plasma Cell Myeloma). In outline: as §1
Another experiment has as its system SF268 (Low Grade Glioma). In outline: as §1
Experiment [11] deals with OVMIU (Ovarian Carcinoma). In outline: as §1
Another experiment relates to GB-1 (Glioblastoma). In outline:
as §1

For experiment [12], the system named is FADU (Head and Neck Carcinoma). In outline: as §1
Experiment [13] deals with LK-2 (Squamous Cell Lung Carcinoma). The method in brief:
as §1

Another experiment relates to WM278 (Melanoma). The method in brief: as §1
Experiment [14] relates to COLO-680N (Esophageal Squamous Cell Carcinoma). In outline: as §1
Experiment [15] has as its system LB996-RCC (Kidney Carcinoma). In outline:
as §1

The subject of experiment [16] is OAW-42 (Ovarian Carcinoma). In outline:
as §1

For the compound `CC1(C)CCC(CN2CCN(c3ccc(C(=O)NS(=O)(=O)c4ccc(NCC5CCOCC5)c([N+](=O)[O-])c4)c(Oc4cnc5[nH]ccc5c4)c3)CC2)=C(c2ccc(Cl)cc2)C1` [Venetoclax] + C[C@@H](Nc1cc(F)cc(F)c1)c1cc(C(=O)N(C)C)cc2c(=O)cc(N3CCOCC3)oc12 [AZD8186] (first compound max 1 µM, 7x7, partner max 3 µM), the Bliss excess in experiment [1] was -0.0261; in [2], 0.0557; in experiment [3], -0.0522; in experiment [4] it was -0.0038; in experiment [5], 0.0205; in experiment [6], 0.135. Besides, the Bliss excess in the experiment on LN-229 (Glioblastoma) was -0.0267; in experiment [7], -0.0525; in experiment [8], -0.0683; in [9], -0.028; in [10], -0.0134; in the experiment with SF268 (Low Grade Glioma) it was -0.0353. Besides, the Bliss excess was -0.129 in experiment [11]; -0.0076 in the experiment on GB-1 (Glioblastoma); -0.0291 in [12]; -0.0234 in [13]; -0.0199 with WM278 (Melanoma); -0.0276 in [14]. Besides, the Bliss excess is 0.0035 in experiment [15] and -0.047 in experiment [16].
For the compound `CC1(C)CCC(CN2CCN(c3ccc(C(=O)NS(=O)(=O)c4ccc(NCC5CCOCC5)c([N+](=O)[O-])c4)c(Oc4cnc5[nH]ccc5c4)c3)CC2)=C(c2ccc(Cl)cc2)C1` [Venetoclax] + Cc1cc2ncnn2cc1Nc1ncc2c(n1)n(C1CCOCC1)c(=O)n2C [AZD7648] (first compound max 1 µM, 7x7, partner max 10 µM), the Bliss excess in experiment [1] is -0.0274; in experiment [2] it was 0.012; in experiment [3], -0.0121; in experiment [4], -0.054; in experiment [5] it was -0.0088; in experiment [6], -0.0181. For the same compound, the Bliss excess in the experiment with LN-229 (Glioblastoma) is -0.0174; in [7], -0.0773; in experiment [8], -0.0534; in experiment [9], -0.0276; in experiment [10] it was -0.0263; in the experiment with SF268 (Low Grade Glioma), -0.0146. Besides, the Bliss excess in experiment [11] was -0.109; with GB-1 (Glioblastoma) it was -0.0591; in experiment [12] it was -0.0241; in experiment [13] it was 0.0102; with WM278 (Melanoma), -0.0476; in [14], -0.0293. Also, the figures for the Bliss excess in experiment [15] and in experiment [16] were -0.0258 and -0.0381, respectively.
For the compound `CC1(C)CCC(CN2CCN(c3ccc(C(=O)NS(=O)(=O)c4ccc(NCC5CCOCC5)c([N+](=O)[O-])c4)c(Oc4cnc5[nH]ccc5c4)c3)CC2)=C(c2ccc(Cl)cc2)C1` [Venetoclax] + Cn1cnc2c(F)c(Nc3ccc(Br)cc3Cl)c(C(=O)NOCCO)cc21 [Selumetinib] (first compound max 1 µM, 7x7, partner max 3 µM), the Bliss excess in experiment [1] was -0.0319; in experiment [2], -0.0069; in [3] it was -0.0282; in experiment [4], -0.0308; in experiment [5] it was 0.105; in experiment [6], -0.0372. Besides, the Bliss excess was -0.0372 with LN-229 (Glioblastoma); -0.0138 in experiment [7]; -0.0262 in [8]; 0.0095 in experiment [9]; -0.0093 in [10]; -0.0355 with SF268 (Low Grade Glioma). In addition, the Bliss excess in experiment [11] was -0.0641; in the experiment on GB-1 (Glioblastoma), -0.0366; in experiment [12] it was 0.0212; in experiment [13] it was -0.0073; with WM278 (Melanoma) it was -0.0319; in experiment [14], -0.0243. The values for the Bliss excess in experiment [15] and in [16] were -0.0209 and -0.0283, respectively.
